Laboratory results from patent publication US20230365576A1, “BRM Targeting Compounds And Associated Methods Of Use” (Prelude Therapeutics Incorporated, priority 2022, published 2023).

Columns and labels:
[1] = biological target: T1, SMARCA2 (Homo sapiens, UniProt P51531); assay: SMARCA2 HiBiT degradation assay in HeLa cells; type: cell-based; details: 18 hours; for DC50: read-out: SMARCA2 IC50; for Dmax: HeLa
T1 construct: SMARCA2-HiBiT knock-in Hela monoclonal cell (CS302366); host or cells: HeLa (CRISPR HiBiT knock-in monoclonal line, heterozygous)
Procedure, shortened: (§1)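 Degradation measured as HiBiT luminescence (Nano-Glo lytic reagent) after 18 h compound exposure at 37° C. Cells were HeLa clones carrying heterozygous HiBiT tags on SMARCA2 or SMARCA4, 2500 per well; compounds at 3-fold serial dilution from 10 μM.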

[2] = biological target: T2, SMARCA4 (Homo sapiens, UniProt P51532); assay: SMARCA4 HiBiT degradation assay in HeLa cells; type: cell-based; details: 18 hours; for Dmax: HeLa
T2 construct: SMARCA4-HiBiT knock-in Hela monoclonal cell (CS3023226) were purchased from Promega; host or cells: HeLa (CRISPR HiBiT knock-in monoclonal line, heterozygous)
Procedure, shortened: as §1

T2 sequence (P51532 whole entry): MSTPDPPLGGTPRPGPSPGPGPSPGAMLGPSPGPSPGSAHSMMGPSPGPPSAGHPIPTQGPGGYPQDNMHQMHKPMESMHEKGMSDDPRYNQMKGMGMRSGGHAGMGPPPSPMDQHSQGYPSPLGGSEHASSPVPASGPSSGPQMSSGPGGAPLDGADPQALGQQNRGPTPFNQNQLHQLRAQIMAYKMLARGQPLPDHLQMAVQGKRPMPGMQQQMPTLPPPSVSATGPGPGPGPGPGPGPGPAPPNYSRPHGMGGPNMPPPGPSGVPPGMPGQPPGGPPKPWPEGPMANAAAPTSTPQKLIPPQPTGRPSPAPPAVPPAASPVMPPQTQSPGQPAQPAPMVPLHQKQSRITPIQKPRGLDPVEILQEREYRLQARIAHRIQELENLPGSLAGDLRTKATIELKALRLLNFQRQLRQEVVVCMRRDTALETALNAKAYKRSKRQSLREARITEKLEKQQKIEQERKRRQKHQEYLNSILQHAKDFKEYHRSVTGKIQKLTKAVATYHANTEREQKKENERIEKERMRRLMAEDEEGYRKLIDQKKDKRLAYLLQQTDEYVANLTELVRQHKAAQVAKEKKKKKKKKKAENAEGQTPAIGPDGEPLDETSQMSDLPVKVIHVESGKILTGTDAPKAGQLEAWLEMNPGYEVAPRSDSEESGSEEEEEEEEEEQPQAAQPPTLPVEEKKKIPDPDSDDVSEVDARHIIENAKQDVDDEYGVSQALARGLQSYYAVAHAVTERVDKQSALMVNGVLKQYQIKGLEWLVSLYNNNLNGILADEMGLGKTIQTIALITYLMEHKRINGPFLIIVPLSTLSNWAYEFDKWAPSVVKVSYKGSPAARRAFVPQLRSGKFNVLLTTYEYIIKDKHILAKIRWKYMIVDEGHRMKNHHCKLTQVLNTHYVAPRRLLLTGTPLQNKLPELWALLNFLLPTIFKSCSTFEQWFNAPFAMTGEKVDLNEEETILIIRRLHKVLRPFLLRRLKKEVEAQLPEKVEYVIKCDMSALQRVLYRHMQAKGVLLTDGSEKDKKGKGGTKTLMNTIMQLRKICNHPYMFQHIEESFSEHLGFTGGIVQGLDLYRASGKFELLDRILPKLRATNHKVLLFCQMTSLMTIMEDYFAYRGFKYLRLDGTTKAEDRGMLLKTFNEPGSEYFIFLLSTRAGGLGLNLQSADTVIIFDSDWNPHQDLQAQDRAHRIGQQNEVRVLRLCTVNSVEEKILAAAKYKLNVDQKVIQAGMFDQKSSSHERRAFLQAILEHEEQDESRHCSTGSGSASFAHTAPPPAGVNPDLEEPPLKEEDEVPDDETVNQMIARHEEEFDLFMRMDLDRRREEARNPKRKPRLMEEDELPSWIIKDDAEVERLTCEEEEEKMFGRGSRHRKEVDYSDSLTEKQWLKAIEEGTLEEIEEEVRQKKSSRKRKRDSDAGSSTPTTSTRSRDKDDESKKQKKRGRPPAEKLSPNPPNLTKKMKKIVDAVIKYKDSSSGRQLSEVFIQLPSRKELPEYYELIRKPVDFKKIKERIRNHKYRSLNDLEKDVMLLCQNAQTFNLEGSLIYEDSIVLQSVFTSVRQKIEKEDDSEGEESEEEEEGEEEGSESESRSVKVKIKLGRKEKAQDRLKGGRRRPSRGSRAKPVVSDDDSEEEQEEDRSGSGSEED
T1 sequence (P51531 whole entry): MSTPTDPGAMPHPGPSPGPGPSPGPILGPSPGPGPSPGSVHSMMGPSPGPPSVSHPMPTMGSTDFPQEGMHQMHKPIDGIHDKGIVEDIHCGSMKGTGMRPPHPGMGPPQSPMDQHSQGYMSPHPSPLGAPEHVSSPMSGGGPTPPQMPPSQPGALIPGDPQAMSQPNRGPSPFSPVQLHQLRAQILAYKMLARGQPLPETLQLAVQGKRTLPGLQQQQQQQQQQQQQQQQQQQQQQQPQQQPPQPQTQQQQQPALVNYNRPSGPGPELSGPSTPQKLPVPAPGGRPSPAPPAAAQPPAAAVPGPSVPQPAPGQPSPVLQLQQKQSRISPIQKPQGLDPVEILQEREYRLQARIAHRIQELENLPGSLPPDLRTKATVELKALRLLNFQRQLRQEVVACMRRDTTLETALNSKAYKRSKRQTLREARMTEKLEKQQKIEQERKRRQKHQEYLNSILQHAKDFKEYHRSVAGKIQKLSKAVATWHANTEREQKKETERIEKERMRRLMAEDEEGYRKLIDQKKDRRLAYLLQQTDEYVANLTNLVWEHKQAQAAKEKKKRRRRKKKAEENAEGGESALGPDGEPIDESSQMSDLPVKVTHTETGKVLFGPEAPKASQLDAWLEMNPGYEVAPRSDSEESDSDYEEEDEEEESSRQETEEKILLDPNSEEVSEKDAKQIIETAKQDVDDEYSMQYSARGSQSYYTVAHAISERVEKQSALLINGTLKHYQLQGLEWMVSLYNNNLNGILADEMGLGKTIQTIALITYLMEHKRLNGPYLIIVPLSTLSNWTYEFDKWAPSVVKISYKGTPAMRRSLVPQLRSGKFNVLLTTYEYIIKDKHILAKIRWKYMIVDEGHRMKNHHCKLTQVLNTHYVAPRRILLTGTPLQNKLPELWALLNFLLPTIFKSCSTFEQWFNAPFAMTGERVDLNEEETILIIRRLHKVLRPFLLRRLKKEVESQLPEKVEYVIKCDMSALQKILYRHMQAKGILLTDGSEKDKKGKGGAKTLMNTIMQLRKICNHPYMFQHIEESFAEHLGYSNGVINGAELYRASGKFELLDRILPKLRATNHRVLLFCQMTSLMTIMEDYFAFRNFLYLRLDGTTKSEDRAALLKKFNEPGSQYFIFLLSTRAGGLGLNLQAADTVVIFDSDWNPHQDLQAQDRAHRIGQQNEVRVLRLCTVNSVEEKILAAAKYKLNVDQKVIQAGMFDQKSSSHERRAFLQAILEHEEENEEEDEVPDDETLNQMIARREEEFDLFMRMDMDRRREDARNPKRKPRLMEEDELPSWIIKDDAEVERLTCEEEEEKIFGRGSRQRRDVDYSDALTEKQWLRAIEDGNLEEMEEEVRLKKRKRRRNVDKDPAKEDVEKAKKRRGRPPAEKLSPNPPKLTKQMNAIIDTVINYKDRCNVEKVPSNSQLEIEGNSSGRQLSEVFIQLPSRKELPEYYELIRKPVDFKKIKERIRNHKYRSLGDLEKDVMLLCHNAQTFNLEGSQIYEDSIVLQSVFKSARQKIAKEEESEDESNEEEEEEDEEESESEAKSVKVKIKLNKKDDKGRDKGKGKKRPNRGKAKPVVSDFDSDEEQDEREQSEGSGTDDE

Structure (SMILES) | DC50 [1] | Dmax [1] | DC50 [2] | Dmax [2] | SMARCA4 DMax % [2] | SMARCA2 DMax % [1]
C[C@H]1CN2c3cc(-c4cc(F)cc(F)c4O)nnc3NC[C@H]2CN1C(=O)N1CCN(CC2CCN(c3ccc4c(c3)C(=O)N(C3CCC(=O)NC3=O)C4)CC2)CC1(C)C (stereo partly drawn) [Example 25, 3-(6-(4-((4-((6aS,9S)-2-(3,5-difluoro-2-hydroxyphenyl)-9-methyl-6,6a,7,8,9,10-hexahydro-5H-pyrazino[1′,2′:4,5]pyrazino[2,3-c]pyridazine-8-carbonyl)-3,3-dimethylpiperazin-1-yl)methyl)piperidin-1-yl)-1-oxoisoindolin-2-yl)piperidine-2,6-dione] | < 100 nM | > 75% | < 100 nM | < 50% |  | 
C[C@@H]1CN(CC2CCN(c3ccc4c(c3)C(=O)N(C3CCC(=O)NC3=O)C4)CC2)C[C@H](C)N1C(=O)N1CCN2c3cc(-c4cccc(F)c4O)nnc3NC[C@H]2C1 (stereo partly drawn) [Example 1, 3-(6-(4-(((3R,5S)-4-((S)-2-(3-fluoro-2-hydroxyphenyl)-6,6a,7,8,9,10-hexahydro-5H-pyrazino[1′,2′:4,5]pyrazino[2,3-c]pyridazine-8-carbonyl)-3,5-dimethylpiperazin-1-yl)methyl)piperidin-1-yl)-1-oxoisoindolin-2-yl)piperidine-2,6-dione] | < 100 nM | > 75% | < 100 nM | < 50% |  | 
CC12CNc3nnc(-c4cccc(F)c4O)cc3N1CCN(C[C@H]1CC[C@H](CN3CCN(c4ccc5c(c4)C(=O)N(C4CCC(=O)NC4=O)C5)CC3)CC1)C2 (single isomer, unassigned) [Example 116] | < 100 nM |  | < 100 nM |  |  | 
C[C@@H]1CN(CC2CCN(c3ccc4c(c3)C(=O)N(C3CCC(=O)NC3=O)C4)CC2)[C@@H](C)CN1C(=O)N1CCN2c3cc(-c4cccc(F)c4O)nnc3NCC2(C)C1 (stereo partly drawn) [Example 57, 3-(6-(4-(((2S,5R)-4-(2-(3-fluoro-2-hydroxyphenyl)-6a-methyl-6,6a,7,8,9,10-hexahydro-5H-pyrazino[1′,2′:4,5]pyrazino[2,3-c]pyridazine-8-carbonyl)-2,5-dimethyl-piperazin-1-yl)methyl)piperidin-1-yl)-1-oxoisoindolin-2-yl)piperidine-2,6-dione] | < 100 nM | > 75% | < 100 nM | < 50% |  | 
CCC12CNc3nnc(-c4cccc(F)c4O)cc3N1CCN(C(=O)N1[C@H](C)CN(CC3CCN(c4ccc5c(c4)C(=O)N(C4CCC(=O)NC4=O)C5)CC3)C[C@H]1C)C2 (single isomer, unassigned) [Example 83] | < 100 nM |  | < 100 nM |  | B (B=50%<Dmax≤75%) | A (A=Dmax>75%)
C[C@@H]1CN(C[C@H]2CCN(c3ccc4c(c3)C(=O)N(C3CCC(=O)NC3=O)C4)C[C@@H]2F)C[C@H](C)N1C(=O)N1CCN2c3cc(-c4cccc(F)c4O)nnc3NC[C@H]2C1 (single isomer, unassigned) [Example 44] | < 100 nM | > 75% | < 100 nM | < 50% |  | 
CC12CNc3nnc(-c4cccc(F)c4O)cc3N1CCN(C[C@H]1CC[C@H](CN3CCN(c4ccc5c(c4)C(=O)N([C@H]4CCC(=O)NC4=O)C5)CC3)CC1)C2 (single isomer, unassigned) [Example 118] | < 100 nM |  | < 100 nM |  |  | 
CCC12CNc3nnc(-c4cccc(F)c4O)cc3N1CCN(C(=O)N1[C@H](C)CN(CC3CCN(c4ccc5c(c4)C(=O)N(C4CCC(=O)NC4=O)C5)CC3)C[C@H]1C)C2 (single isomer, unassigned) [Example 82] | < 100 nM | > 75% | < 100 nM |  | A (A=Dmax>75%) | 
C[C@@H]1CN(CC2CCN(c3ccc4c(c3)C(=O)N(C3CCC(=O)NC3=O)C4)CC2)C[C@H](C)N1C(=O)N1CCN2c3cc(-c4cccc(Cl)c4O)nnc3NCC2(C)C1 (stereo partly drawn) [Example 30, 3-(6-(4-(((3R,5S)-4-(2-(3-chloro-2-hydroxyphenyl)-6a-methyl-6,6a,7,8,9,10-hexahydro-5H-pyrazino[1′,2′:4,5]pyrazino[2,3-c]pyridazine-8-carbonyl)-3,5-dimethylpiperazin-1-yl)methyl)piperidin-1-yl)-1-oxoisoindolin-2-yl)piperidine-2,6-dione] | < 100 nM | > 75% | < 100 nM | 50 to 75% |  | 
C[C@H]1CN(CC2CCN(c3ccc4c(c3)C(=O)N(C3CCC(=O)NC3=O)C4)CC2)C[C@H](C)N1C(=O)N1CCN2c3cc(-c4cc(F)cc(F)c4O)nnc3NC[C@H]2C1 (stereo partly drawn) [Example 47, 3-(6-(4-(((3S,5S)-4-((S)-2-(3,5-difluoro-2-hydroxyphenyl)-6,6a,7,8,9,10-hexahydro-5H-pyrazino[1′,2′:4,5]pyrazino[2,3-c]pyridazine-8-carbonyl)-3,5-dimethylpiperazin-1-yl)methyl)piperidin-1-yl)-1-oxoisoindolin-2-yl)piperidine-2,6-dione] | < 100 nM | > 75% | < 100 nM | 50 to 75% |  | 
CCC12CNc3nnc(-c4cccc(F)c4O)cc3N1CCN(C(=O)N1C[C@H](C)N(CC3CCN(c4ccc5c(c4)C(=O)N(C4CCC(=O)NC4=O)C5)CC3)C[C@H]1C)C2 (single isomer, unassigned) [Example 84] | < 100 nM | > 75% | < 100 nM | 50 to 75% |  | 

Now from value to compound:

DC50 [1] | Dmax [1] | DC50 [2] | Dmax [2] | SMARCA4 DMax % [2] | SMARCA2 DMax % [1] | Structure (SMILES)
< 100 nM | > 75% | < 100 nM | < 50% |  |  | C[C@@H]1CN(CC2CCN(c3ccc4c(c3)C(=O)N(C3CCC(=O)NC3=O)C4)CC2)C[C@@H](C)N1C(=O)N1CCN2c3cc(-c4cc(F)cc(F)c4O)nnc3NC[C@H]2C1 (stereo partly drawn) [Example 45, 3-(6-(4-(((3R,5R)-4-((S)-2-(3,5-difluoro-2-hydroxyphenyl)-6,6a,7,8,9,10-hexahydro-5H-pyrazino[1′,2′:4,5]pyrazino[2,3-c]pyridazine-8-carbonyl)-3,5-dimethylpiperazin-1-yl)methyl)piperidin-1-yl)-1-oxoisoindolin-2-yl)piperidine-2,6-dione]
< 100 nM | > 75% | < 100 nM |  | B (B=50%<Dmax≤75%) |  | C[C@@H]1CN(CC2CCN(c3ccc4c(c3)C(=O)N(C3CCC(=O)NC3=O)C4)CC2)C[C@H](C)N1C(=O)N1CCN2c3cc(-c4cccc(F)c4O)nnc3NCC2(C)C1 (single isomer, unassigned) [Example 11]
< 100 nM | > 75% | 100 to 1000 nM | < 50% |  |  | CC1(C)CN(CC2CCN(c3ccc4c(c3)C(=O)N(C3CCC(=O)NC3=O)C4)CC2)CCC1C(=O)N1CCN2c3cc(-c4cc(F)cc(F)c4O)nnc3NC[C@H]2C1 (stereo partly drawn) [Example 119, 3-(6-(4-((4-((S)-2-(3,5-difluoro-2-hydroxyphenyl)-6,6a,7,8,9,10-hexahydro-5H-pyrazino[1′,2′:4,5]pyrazino[2,3-c]pyridazine-8-carbonyl)-3,3-dimethylpiperidin-1-yl)methyl)piperidin-1-yl)-1-oxoisoindolin-2-yl)piperidine-2,6-dione]
< 100 nM |  | < 100 nM |  | B (B=50%<Dmax≤75%) | A (A=Dmax>75%) | CCC12CNc3nnc(-c4cc(F)cc(F)c4O)cc3N1CCN(C(=O)C1(F)CCC(CN3CCN(c4ccc5c(c4)C(=O)N([C@H]4CCC(=O)NC4=O)C5)CC3)CC1)C2 (single isomer, unassigned) [Example 103]
< 100 nM | > 75% | < 100 nM | > 75% |  |  | CC1(C)CN(CC2CCN(c3ccc4c(c3)C(=O)N(C3CCC(=O)NC3=O)C4)CC2)CCN1C(=O)N1CCN2c3cc(-c4cccc(F)c4O)nnc3NCC2(C)C1 (mixture of isomers) [Example 6, 3-(6-(4-((4-(2-(3-fluoro-2-hydroxyphenyl)-6a-methyl-6,6a,7,8,9,10-hexahydro-5H-pyrazino[1′,2′:4,5]pyrazino[2,3-c]pyridazine-8-carbonyl)-3,3-dimethylpiperazin-1-yl)methyl)piperidin-1-yl)-1-oxoisoindolin-2-yl)piperidine-2,6-dione]
< 100 nM | > 75% | < 100 nM | < 50% |  |  | C[C@@H]1CN(C[C@H]2CCN(c3ccc4c(c3)C(=O)N(C3CCC(=O)NC3=O)C4)C[C@@H]2F)C[C@H](C)N1C(=O)N1CCN2c3cc(-c4cc(F)cc(F)c4O)nnc3NC[C@H]2C1 (mixture of isomers) [Example 42, 3-(6-((rac-3R,4R)-4-(((3S,5R)-4-((S)-2-(3,5-difluoro-2-hydroxyphenyl)-6,6a,7,8,9,10-hexahydro-5H-pyrazino[1′,2′:4,5]pyrazino[2,3-c]pyridazine-8-carbonyl)-3,5-dimethylpiperazin-1-yl)methyl)-3-fluoropiperidin-1-yl)-1-oxoisoindolin-2-yl)piperidine-2,6-dione]
< 100 nM | > 75% | < 100 nM | 50 to 75% |  |  | CC1(C)CN(CC2CCN(c3ccc4c(c3)C(=O)N(C3CCC(=O)NC3=O)C4)CC2)CCN1C(=O)N1CCN2c3cc(-c4cc(F)cc(F)c4O)nnc3NC[C@H]2C1 (stereo partly drawn) [Example 22, 3-(6-(4-((4-((S)-2-(3,5-difluoro-2-hydroxyphenyl)-6,6a,7,8,9,10-hexahydro-5H-pyrazino[1′,2′:4,5]pyrazino[2,3-c]pyridazine-8-carbonyl)-3,3-dimethylpiperazin-1-yl)methyl)piperidin-1-yl)-1-oxoisoindolin-2-yl)piperidine-2,6-dione]
< 100 nM | > 75% | < 100 nM | 50 to 75% |  |  | CC12CNc3nnc(-c4cccc(F)c4O)cc3N1CCN(C[C@H]1CC[C@H](CN3CCN(c4ccc5c(c4)C(=O)N([C@H]4CCC(=O)NC4=O)C5)CC3)CC1)C2 (single isomer, unassigned) [Example 117]
